Read-outs that look alike come from different tables or passages of the source.
Experiments:
E. faecium ATCC19434 = experiment: Sensitivity test (agar dilution); format: cell-based, Enterococcus faecium; conditions: Enterococcus faecium, E. faecium ATCC19434
Method: (§1) The antibacterial activities were tested against various 18 bacteria (27 standard strains) which are representative bacteria caused clinically infectious disease (Staphylococcus aureus 3 strains, Staphylococcus epidermidis 1 strain, Micrococcus luteus 1 strain, Streptococcus pyogenes 1 strain, Enterococcus faecalis 1 strain, Enterococcus faecium 1 strain, Bacillus subtilis 1 strain, Escherichia coli 3 strains, Klebsiella pneumoniae 1 strain, Proteus mirabilis 1 strain, Proteus vulgaris 2 strains, Pseudomonas aeruginosa 3 strains, Serratia marcescens 2 strains, Enterobacter aerogenes 1 strain, Stenotrophomonas maltophilia 1 strain, Enterobacter cloacae 1 strain, Citrobacter freundii 1 strain, Moraxella catarrhalis 2 strains).
(§2) According to the standard method of Japan Chemotherapeutic Society (Chemotherapy, vol. […], p 76-79 (1981)) the test was carried out using the agar dilution method. After dissolving test samples in distilled water, agar medium containing the test samples was prepared in such a manner that the final concentration became twice serial dilution by pouring serially diluted combination drug solution or a single drug solution into agar medium. As agar medium was used Mueller Hinton Agar medium (MHA). Then, each strain was cultivated over night at 37° C. in an incubator and suspended in buffered saline solution with gelatin (BSG) in the concentration of about 10^6 CFU/ml. The suspension (about 5 μl) containing test strains was inoculated to the medium containing the test samples by Micro Planter.
(§3) When the sample is subjected to sensitivity test, this mixed solution was diluted by twice serial dilution method.
(§4) Furthermore, when the drug is solely used, each test sample was used as it is, and diluted by twice serial dilution method from the maximum concentration to the minimum concentration.
(§5) FIC index based on MIC value was calculated. […] Namely, when FIC index calculated by the following formula is equal or less than 1, the enhanced effect of the combination drug in said ratio is considered as positive. When FIC index is over 1, the enhanced effect of the combination drug in said ratio is considered as negative.
(§6) Formula of FIC index: FIC index=(MIC of Drug A in combination/MIC of Drug A alone)+(MIC of Drug B in combination/MIC of Drug B alone) N.C. in tables means being not calculated.

[1] = test system: S. aureus SP-7928 (homo-MRSA); experiment: Sensitivity test (agar dilution); format: cell-based, Staphylococcus aureus; conditions: Staphylococcus aureus, MRSA, S. aureus SP-7928 (homo-MRSA)
Method: as §1, §2, §3, §4, §5, §6

[2] = test system: S. aureus MS94088 (hetero-MRSA); experiment: Sensitivity test (agar dilution); format: cell-based, Staphylococcus aureus; conditions: Staphylococcus aureus, MRSA, S. aureus MS94088 (hetero-MRSA)
Method: as §1, §2, §3, §4, §5, §6

S. aureus 209P = experiment: Sensitivity test (agar dilution); format: cell-based, Staphylococcus aureus; conditions: Staphylococcus aureus, 209P, S. aureus 209P
Method: as §1, §2, §3, §4, §5, §6

E. cloacae GN7471 = experiment: Sensitivity test (agar dilution); format: cell-based, Enterobacter cloacae; conditions: Enterobacter cloacae, E. cloacae GN7471
Method: as §1, §2, §3, §4, §5, §6

K. pneumoniae ATCC10031 = experiment: Sensitivity test (agar dilution); format: cell-based, Klebsiella pneumoniae; conditions: Klebsiella pneumoniae, K. pneumoniae ATCC10031
Method: as §1, §2, §3, §4, §5, §6

P. aeruginosa TL-2666 = experiment: Sensitivity test (agar dilution); format: cell-based, Pseudomonas aeruginosa; conditions: Pseudomonas aeruginosa, P. aeruginosa TL-2666
Method: as §1, §2, §3, §4, §5, §6

P. aeruginosa TL-2667 = experiment: Sensitivity test (agar dilution); format: cell-based, Pseudomonas aeruginosa; conditions: Pseudomonas aeruginosa, P. aeruginosa TL-2667
Method: as §1, §2, §3, §4, §5, §6

P. aeruginosa IFO3451 = experiment: Sensitivity test (agar dilution); format: cell-based, Pseudomonas aeruginosa; conditions: Pseudomonas aeruginosa, P. aeruginosa IFO3451
Method: as §1, §2, §3, §4, §5, §6

E. coli NIHJ JC-2 = experiment: Sensitivity test (agar dilution); format: cell-based, Escherichia coli; conditions: Escherichia coli, E. coli NIHJ JC-2
Method: as §1, §2, §3, §4, §5, §6

E. coli ML1410 = experiment: Sensitivity test (agar dilution); format: cell-based, Escherichia coli; conditions: Escherichia coli, E. coli ML1410
Method: as §1, §2, §3, §4, §5, §6

E. coli ML1410 RP4 = experiment: microbe, parasite or virus in culture; format: cell-based, Escherichia coli; conditions: Escherichia coli, E. coli ML1410 RP4
Method: as §1, §2, §3, §4, §5, §6

S. maltophilia IID1275 = experiment: Sensitivity test (agar dilution); format: cell-based, Stenotrophomonas maltophilia; conditions: Stenotrophomonas maltophilia, S. maltophilia IID1275
Method: as §1, §2, §3, §4, §5, §6

[3] = ATCC19434, drug alone, read-out: MIC alone
[4] = Concomitant (AZT:SM = 1:1), read-out: MIC concomitant
[5] = drug alone, read-out: MIC alone
[6] = GN7471, drug alone, read-out: MIC alone
[7] = ATCC10031, drug alone, read-out: MIC alone
[8] = TL2666, drug alone, read-out: MIC alone
[9] = TL2667, drug alone, read-out: MIC alone
[10] = IFO3451, drug alone, read-out: MIC alone
[11] = NIHJJC2, drug alone, read-out: MIC alone
[12] = ML1410, drug alone, read-out: MIC alone
[13] = ML1410RP4, read-out: MIC alone, drug alone
[14] = IID1275, drug alone, read-out: MIC alone
[15] = Concomitant (BIPM:SM = 1:1), read-out: MIC concomitant

| SMILES | MIC (E. faecium ATCC19434; [3]) [µg/mL] | MIC [1, 5] [µg/mL] | MIC [2, 5] [µg/mL] | MIC (S. aureus 209P; [5]) [µg/mL] | MIC (E. cloacae GN7471; [6]) [µg/mL] | MIC (K. pneumoniae ATCC10031; [7]) [µg/mL] | MIC (P. aeruginosa TL-2666; [8]) [µg/mL] | MIC (P. aeruginosa TL-2667; [9]) [µg/mL] | MIC (P. aeruginosa IFO3451; [10]) [µg/mL] | MIC (E. coli NIHJ JC-2; [11]) [µg/mL] | MIC (E. coli ML1410; [12]) [µg/mL] | MIC (E. coli ML1410 RP4; [13]) [µg/mL] | MIC (S. maltophilia IID1275; [14]) [µg/mL] | further results |
| --- | --- | --- | --- | --- | --- | --- | --- | --- | --- | --- | --- | --- | --- | --- |
| C[C@H]1[C@H](NC(=O)/C(=N\OC(C)(C)C(=O)O)c2csc(N)n2)C(=O)N1S(=O)(=O)O [AZT, aztreonam] | > 32 | > 32 | > 32 | > 32 | 16 | 0.004 | 2 | 2 | 2 | 0.063 | 0.125 | 0.125 | > 32 | MIC (E. faecium ATCC19434; ATCC19434, Concomitant (AZT:SM = 1:1), read-out: MIC concomitant): 0.125 µg/mL; MIC [1, 4]: 2 µg/mL; MIC [2, 4]: 0.25 µg/mL; MIC (S. aureus 209P; [4]): 0.008 µg/mL; MIC (E. cloacae GN7471; GN7471, Concomitant (AZT:SM = 1:1), read-out: MIC concomitant): 4 µg/mL; MIC (K. pneumoniae ATCC10031; ATCC10031, Concomitant (AZT:SM = 1:1), read-out: MIC concomitant): 0.004 µg/mL; MIC (P. aeruginosa TL-2666; TL2666, Concomitant (AZT:SM = 1:1), read-out: MIC concomitant): 8 µg/mL; MIC (P. aeruginosa TL-2667; TL2667, Concomitant (AZT:SM = 1:1), read-out: MIC concomitant): 8 µg/mL; MIC (P. aeruginosa IFO3451; IFO3451, Concomitant (AZT:SM = 1:1), read-out: MIC concomitant): 2 µg/mL; MIC (E. coli NIHJ JC-2; NIHJJC2, Concomitant (AZT:SM = 1:1), read-out: MIC concomitant): 0.063 µg/mL; MIC (E. coli ML1410; ML1410, Concomitant (AZT:SM = 1:1), read-out: MIC concomitant): 0.063 µg/mL; MIC (E. coli ML1410 RP4; ML1410RP4, read-out: MIC concomitant, Concomitant (AZT:SM = 1:1)): 0.063 µg/mL; MIC (S. maltophilia IID1275; IID1275, Concomitant (AZT:SM = 1:1), read-out: MIC concomitant): > 32 µg/mL |
| C[C@@H](O)[C@H]1C(=O)N2C(C(=O)[O-])=C(SC3Cn4cnc[n+]4C3)[C@H](C)[C@H]12 (stereo partly shown) [BIPM, biapenem] | 16 | > 32 | 4 | 0.031 | 0.063 | 0.031 | 1 | 8 | 0.25 | 0.031 | 0.25 | 0.25 | > 32 | MIC (E. faecium ATCC19434; ATCC19434, Concomitant (BIPM:SM = 1:1), read-out: MIC concomitant): 0.25 µg/mL; MIC [1, 15]: 2 µg/mL; MIC [2, 15]: 0.25 µg/mL; MIC (S. aureus 209P; [15]): 0.008 µg/mL; MIC (E. cloacae GN7471; GN7471, Concomitant (BIPM:SM = 1:1), read-out: MIC concomitant): 0.063 µg/mL; MIC (K. pneumoniae ATCC10031; ATCC10031, Concomitant (BIPM:SM = 1:1), read-out: MIC concomitant): 0.016 µg/mL; MIC (P. aeruginosa TL-2666; TL2666, Concomitant (BIPM:SM = 1:1), read-out: MIC concomitant): 1 µg/mL; MIC (P. aeruginosa TL-2667; TL2667, Concomitant (BIPM:SM = 1:1), read-out: MIC concomitant): 4 µg/mL; MIC (P. aeruginosa IFO3451; IFO3451, Concomitant (BIPM:SM = 1:1), read-out: MIC concomitant): 0.25 µg/mL; MIC (E. coli NIHJ JC-2; NIHJJC2, Concomitant (BIPM:SM = 1:1), read-out: MIC concomitant): 0.031 µg/mL; MIC (E. coli ML1410; ML1410, Concomitant (BIPM:SM = 1:1), read-out: MIC concomitant): 0.063 µg/mL; MIC (E. coli ML1410 RP4; ML1410RP4, read-out: MIC concomitant, Concomitant (BIPM:SM = 1:1)): 0.125 µg/mL; MIC (S. maltophilia IID1275; IID1275, Concomitant (BIPM:SM = 1:1), read-out: MIC concomitant): > 32 µg/mL |

Source: patent US20090018111A1, “Novel Antimicrobial Medicament” (priority 2004, published 2009)
